Experimental data published in patent US9034906B2, “EP4 agonist” (Asahi Glass Company, Limited, priority 2008, dated 2015).

What was measured:
[1] = system: dextran sodium sulfate-induced colitis; test: Dextran sodium sulfate-induced colitis model in mice (BALB/c), prophylactic; type: in vivo, mouse; settings: 2.2 w/v % DSS
Text: The prophylactic effect of compound F on ulcerative colitis was examined in dextran sodium sulfate-induced colitis model.
Female BALB/c mice (6 weeks old, Japan SLC) were purchased, acclimated for 1 week and used for the study. Except the normal group, the mice were allowed to freely drink a dextran sodium sulfate (to be abbreviated as DSS, MP Biochemicals, M.W. 36,000-50,000, Lot No. 3439J) solution prepared to 2.2 w/v % for 9 days to induce colitis. Compound F was orally administered at doses of 0.1, 0.3 and 1 mg/kg, once a day, daily, from the start day of DSS drinking (day 0) to one day before autopsy (day 9). To the control group was orally administered a solvent (1 vol % ethanol solution) at 10 mL/kg in the same manner.
Thus, to determine the level of diarrhea, the stool was graded into 6 levels; normal (score 0), spherical stool being not less than 50% (score 1), banana-shaped stool being less than 50% (score 2), banana-shaped stool being not less than 50% (score 3), muddy stool (score 4), watery stool (score 6) (stool consistency score). The fecal occult blood (including proctorrhagia) was graded using fecal occult blood slide 5 Shionogi II (Shionogi & Co., Ltd.) into 6 levels; negative (no change of the slide color from yellow, score 0), weakly positive (slightly blue green, score 1), positive (blue green, score 2), moderately positive (clear blue green, score 3), strongly positive (instantaneous color change to dark blue with color developer, score 4), and proctorrhagia (score 5). The sum of the stool consistency score and occult blood score was defined as the stool score. Eight to 10 animals were used for each group, and the results were expressed as average±standard deviation. On the day of autopsy, after laparotomy under ether anesthesia and blood collection, the mice were exsanguinated to death. Then the large intestines were dissected from just below the cecum to the anus and the length thereof was measured.

[2] = system: eye; test: Local irritative effect on the eye in rabbits; type: in vivo; settings: rabbit, single ocular instillation
Method: Japanese white rabbits (male, 10 weeks old, BIOTEC Co., Ltd.) were purchased, acclimated for 1 week and used for the study. Compound F solution (0.01 w/v %) was instilled once into the cornea of both eyes at a volume of 50 μL/eye with a micropipette. The intraocular pressure of the right eye was measured and the local irritative effect on the eye was evaluated using the left eye. After surface anesthesia with oxybupranol (Benoxil 0.4% instillation solution), the intraocular pressure was measured before ocular instillation and 1, 2, 3, 4, 6 and 8 hr after the instillation using a pneumatonometer (Alcon Ltd.). In addition, the local irritative effect on the eye was evaluated by scoring conjunctival congestion, conjunctival edema, cornea opacity, iris congestion, excretion and eye closure performance. For the evaluation, phosphate buffer was used for the solvent control group, and isopropyl unoprostone (Rescula eye drops, Santen Pharmaceutical Co., Ltd.) was used for comparison. Six animals were used for each group and the results were expressed as average.

[3] = system: dextran sodium sulfate-induced colitis; test: Remission/relapse model of dextran sodium sulfate-induced colitis in mice, therapeutic; type: in vivo, mouse; settings: compound F 1 mg/kg, SASP 100 mg/kg, oral once a day for 50 days
Text: Next, therapeutic effect of compound F on colitis was studied in a chronic model. Female BALB/c mice, 6 weeks old, body weight about 20 g (Japan SLC) were purchased, acclimated for 1 week and used for the study. The mice were divided into a colitis induction group and a normal group. The colitis induction group was allowed to freely drink a 2.6 w/v % DSS (MP Biochemicals, M.W. 36,000-50,000, Lot No. 4556J) solution to induce colitis. On day 8 when the stool score (defined in Example 23) of the colitis induction group reached about 4.5, the mice were subdivided into a control group, a compound F 1 mg/kg administration group and a salazosulfapyridine (SIGMA, Lot No. 085K1930, hereinafter to be abbreviated as SASP) 100 mg/kg administration group. Then the mice were allowed to freely drink distilled water instead of DSS solution for 9 days (remission period). After the grouping, the stool score was evaluated every 3-4 days. […]
Compound F at a dose of 1 mg/kg and SASP at a dose of 100 mg/kg were orally administered once a day, daily, for 50 days from the initial remission period (day 8 from the start of 2.6 w/v % DSS drinking) to the fifth remission period (day 57 from the start of 2.6 w/v % DSS drinking). […] The remission ratio (%) was calculated as a ratio of mice in remission in each group. […]

[4] = system: dextran sodium sulfate-induced colitis; test: Dextran sodium sulfate-induced colitis model in mice (C57BL/6); type: in vivo, mouse; settings: C57BL/6 mice, DSS, oral 0.3 and 1 mg/kg once a day
Method: Whether or not an IP agonist has an effect on such colitis model was determined using a selective IP agonist, BPS.
Female C57BL/6 mice (6 weeks old, Japan SLC) were purchased, acclimated for 1 week and used for the study. Except the normal group, the mice were allowed to freely drink a 3 or 2 w/v % DSS (MP Biochemicals, Lot No. 5653H and 5464H, respectively) solution for 1 week to induce colitis. BPS at a dose of 0.3 mg/kg and compound F at doses of 0.3 and 1 mg/kg were orally administered once a day, daily, from the start day of DSS drinking (day 0) to one day before autopsy (day 9). To the control group was orally administered a solvent (1 vol % ethanol solution) at 10 mL/kg in the same manner. The consistency of the stool was graded from score 0 to 4, with normal (0), partly loose stool (1), loose stool (2) and diarrhea (4). The blood feces was also graded from score 0 to 4, with normal (0), partly blood feces (1), blood feces (2) and blood feces plus proctorrhagia (4). The sum of both grades was defined as the stool score (maximum 8). Furthermore, the length of the large intestine was measured in the same manner as in Example 23. Six to 10 animals were used for each group, and the results are shown in average±standard deviation.

Cc1cccc([C@@H](C)[C@H](O)/C=C/[C@@H]2[C@@H]3[C@H](C[C@H]2O)O/C(=C\CCCc2nnn[nH]2)C3(F)F)c1 [Compound F, 4-[(Z)-(1S,5R,6R,7R)-6-[(1E,3R,4R)-3-hydroxy-4-(m-tolyl)-1-pentenyl]-7-hydroxy-2-oxa-4,4-difluoro-bicyclo[3.3.0]octan-3-ylidene]-1-(tetrazol-5-yl)butane]
Suppression of the increase in the stool score ([1]; oral 0.1 mg/kg once a day): suppressive tendency
Effect on shortening of the large intestine ([1]; oral 0.1, 0.3 and 1 mg/kg once a day): dose-dependent suppressive effect
Suppression of the increase in the stool score ([1]; oral 0.3 and 1 mg/kg once a day): significant
Local irritant effect on the eye [2]: conjunctival edema and eye closure were observed 1 hr after the instillation in some animals
Effect on stool score in remission and relapse periods [3]: decreased the stool score early in the remission period, and suppressed an increase in the score in the relapse period
Effect on the onset of colitis (stool score, colon shortening) [4]: superior prophylactic effect
